A word on the melting point: it is the temperature of the solid-liquid transition.

These results are taken from a melting point compilation (Tetko et al.; mined from patent text by program, amines drawn as free bases though some values may be those of a salt).

`CCn1nc(OC2COCCC2=O)c(-c2ccc(F)cc2)c1-c1ccc(S(C)(=O)=O)cc1` (centres undefined) yielded a melting point of 181 to 182 °C.

For the molecule `CCCCOC(=O)C(=O)c1cc(-c2ccc(S(C)(=O)=O)cc2)n(-c2ccccc2)c1C`, the melting point amounted to 100 °C.

As to `CCCCCS(=O)(=O)NC(=O)CCc1cc(-c2ccccc2)nn1Cc1ccc(Cl)cc1Cl`, the melting point lay within 145 to 147 °C.

With `CC1(C)OC(O)C(Oc2ccc(F)c(F)c2)=C1c1ccc(S(C)(=O)=O)cc1` (centres undefined), the melting point was determined as 151 °C.

Regarding `Cn1cc(C2(c3c4n(c5ccccc35)CCCCC4)CC(=O)OC2=O)c2ccccc21` (centres undefined), the melting point was in the range of 257 to 259 °C.

`CC(c1ccc(Br)cc1)N1CCC(NC(=O)CCc2nc(-c3ccccn3)no2)CC1` (centres undefined) registered a melting point of 142 to 143 °C.

The molecule `CN(N=Cc1ccccc1C(=O)O)c1nc2ccccc2o1` gave a melting point of 253 to 255 °C.

For the molecule `Fc1ccc2c(c1)C(=C1CCNCC1)c1ncccc1CC2`, the melting point fell in the range of 78 to 81 °C.

For `Fc1ccccc1-c1nncc2c(-c3ccccc3)c(OCc3ccccn3)nn12`, the melting point lay in the range of 182 to 183 °C.

In turn, `O=[N+]([O-])c1ccc(/C=C/c2ccc(Cl)c(C(F)(F)F)c2)cc1` displayed a melting point of 173 to 174 °C.

Regarding `COc1ccc(C(=O)NCCCSc2ccncc2)cc1`, the melting point fell in the range of 121 to 122 °C.

Molecule `CCOC(=O)/C(=N\OCc1c(Cl)cccc1Cl)c1csc(N)n1` returned a melting point of 171 to 172 °C.

`CC1(C)CCC(C)(C)c2cc3cc(-c4ccc(C(=O)O)s4)ccc3cc21` had a melting point of 254 to 255 °C.

As for `CC(C)Cn1c(=O)n(C)c(=O)c2c(Br)c(C(O)c3cccnc3)sc21` (centres undefined), the melting point stood at 132 °C.

`Cc1cc(C)nc(Oc2ccc([N+](=O)[O-])cc2)n1` displayed a melting point of 108 to 110 °C.

Molecule `OC1c2cc(Cl)ccc2OCC1n1ccnc1` (centres undefined) returned a melting point of 153 to 160 °C.

As to `O=C1Cc2cc(NC(=O)C(=O)N3CCC(Cc4ccc(Cl)cc4)CC3)ccc2N1`, the melting point came to 195 °C.

In turn, `CS(=O)(=O)c1ccc(C2=C(c3ccccc3)CC2)cc1` yielded a melting point of 73 to 75 °C.

The molecule `N#CCc1ccc(N)c(Cl)c1` yielded a melting point of 77 °C.

`O=C(O)c1ccc(-c2cnc3c(c2)N(Cc2c(Cl)cccc2Cl)C(=O)CN3)cc1` showed a melting point of over 200 °C.

On to `CCCCc1nn(-c2ccccc2Cl)c(=O)[nH]1`, for which the melting point is 103 to 104 °C.

With `C=C(C)C(=O)N=c1ccn(-c2ccccc2)nc1`, the melting point came out at 136 °C.

Regarding `COc1ccccc1CN[C@H]1CCCN(C)[C@H]1c1ccccc1` (relative stereo), the melting point is 58 °C.

The molecule `CN(C)Cc1c[nH]c2ccc(Cl)cc12` yielded a melting point of 127 to 130 °C.

With `CCC(CC)n1nnc2c(Nc3c(Cl)cc(OC)cc3OC)nc(C)cc21`, the melting point lay in the range of 168 to 169 °C.

As for `CCCCCCCCCCC#Cc1cccc([C@H]2O[C@@H]2CO)c1`, the melting point was 41 to 42 °C.

On to `CC(C)Cc1ccc(C2(c3ccccc3)OC(=O)C(O)=C2O)cc1` (centres undefined), for which the melting point was 138 to 139 °C.

As to `CC1(C)C(C=C(Br)Br)C1C(=O)OCc1cccc(Oc2ccccc2)c1` (centres undefined), the melting point amounted to 93 °C.

In the case of `CCCCCCCN(CCN1CCN(CCSc2nc3c(C)c(Cl)cc(C(C)C)c3o2)CC1)C(=O)Nc1c(C(C)C)cc(O)cc1C(C)C`, the melting point was 138 to 140 °C.

Take `COc1ccccc1N1CCN(C[C@@H](CC2CCCCC2)NC(=O)C2(C)CCCCC2)CC1`: the melting point lay in the range of 119 to 121 °C.

`Nc1nnc(SCC(CS(=O)(=O)c2ccc(-c3ccc(Cl)cc3)cc2)C(=O)O)s1` (centres undefined): the melting point lay in the range of 184 to 186 °C.

In turn, `O=C(NCc1ccccn1)Nc1cc(-n2c(=O)n(-c3ccccc3)c3ccccc32)ccn1` displayed a melting point of 231 to 232 °C.

The molecule `OCC1(CO)c2ccccc2C=Cc2ccccc21` returned a melting point of 162 to 163 °C.

On to `CCOCCOc1ccc2c(c1)C(CNS(=O)(=O)CC)CC(C)(C)O2` (centres undefined), for which the melting point lay in the range of 70 to 72 °C.

In turn, `NC(=O)Nc1ccc(OC(F)C(F)(F)F)cc1` (centres undefined) yielded a melting point of 167 to 168 °C.

Regarding `Cc1nc(C2CC2)nc(C)c1N1CCCn2c1nc1c(Cl)ccc(C(OC(F)F)C(F)(F)F)c12` (centres undefined), the melting point lay within 191 to 193 °C.

Molecule `O=S(=O)(CCCCl)Nc1ccccc1OCc1ccc2ccccc2n1` showed a melting point of 100 to 101 °C.

In the case of `COc1cc(N)c(Cl)cc1C(=O)NC[C@H]1CCN(CCCCCC(=O)c2ccccc2)C[C@H]1OC` (relative stereo), the melting point lay in the range of 99 to 101 °C.

As to `CCOc1cccc(N2C(=O)C(=CN(C)C)c3ccccc32)c1`, the melting point was 99 to 102 °C.

As for `Cc1cc2ccccc2n1-c1ccc(OCc2ccccc2)cc1`, the melting point was 95 to 96 °C.

Molecule `O=C1c2cc(Cl)ccc2-n2c1nc1ccccc1c2=O` displayed a melting point of 295 to 296 °C.

For `O=C(O)c1ccc(OCCOc2ccccc2)cc1O`, the melting point fell in the range of 114 to 116 °C.

As to `Clc1ccc(-c2c(Cc3nnn[nH]3)cnn2-c2ccccc2)cc1`, the melting point was in the range of 230 to 232 °C.

For `O=C(O)c1ccc(F)c(F)c1Nc1ccc(I)cc1F`, the melting point was 199 to 201 °C.

`CN1CCN(Cc2ccc(NC(=O)c3nsc4cc(Oc5ccnc(N)n5)ccc34)cc2C(F)(F)F)CC1`: the melting point fell in the range of 215 to 217 °C.

Molecule `O=C(c1ccccc1)N1CC2COCC2C1` (centres undefined) gave a melting point of 47 to 48 °C.

Regarding `CC(=O)/C=C/c1cc(F)c2ncc(C(=O)NCc3ccc(Cl)cc3)c(O)c2c1`, the melting point was 286 to 289 °C.

On to `CC(C)n1c(=O)sc2cc(N)ccc21`, for which the melting point was 146 to 148 °C.

Molecule `CS(=O)(=O)NCCCCCCCCCCCn1c2c(c3ccccc3c1=O)C(=O)c1ccccc1-2` showed a melting point of 136 to 137 °C.

`Cc1c(-c2ccc(C[C@H](NC(=O)c3c(F)cccc3C(F)(F)F)C(=O)O)cc2)c(=O)n(C)c(=O)n1C` came in with a melting point of 218 to 220 °C.

`COc1ccc2c(c1)CC[C@@H](O)[C@@H]2N1CCCC1` (relative stereo) registered a melting point of 79 to 80 °C.

With `CN1C(=O)CC[C@]2(C)c3ccc(-c4cccc5cccnc45)cc3CC[C@@H]12`, the melting point lay in the range of 205 to 207 °C.

Regarding `CCc1c(Cl)sc2[nH]c(=O)c(=O)[nH]c12`, the melting point was 282 to 284 °C.

`Cc1cc(Cl)cc(NC(=O)Cc2ccc(OC3(C(=O)O)CCC(C)C3)cc2)c1` (centres undefined) displayed a melting point of 164 to 166 °C.

For `CSc1ccc(-c2ccc(=O)[nH]c2C)cc1`, the melting point fell in the range of 211 to 212 °C.

Molecule `CCNC(=O)CC1CCN(Cc2cnc3cc(NC(=O)c4ccc(-c5ccc(F)cc5)cc4)ccc3c2)CC1` displayed a melting point of 224 to 227 °C.

Regarding `Nc1c2c(nc3cc(F)ccc13)CCSC2`, the melting point was 234 to 237 °C.

Take `CCCOc1ccc(F)cc1OCCN1C(=O)c2ccccc2C1=O`: the melting point lay in the range of 102 to 103 °C.

Molecule `O=[N+]([O-])c1ccc(F)cc1OC1C=CCC1` (centres undefined) gave a melting point of 50.5 to 51 °C.

`CC(=O)Nc1ccc(NC(=O)NC23CC4CC(CC(C4)C2)C3)cn1` registered a melting point of 252 to 254 °C.

On to `CCc1nc2c(c(C)c(C)n3nnnc23)n1CCOCCN`, for which the melting point lay in the range of 181 to 183 °C.

The molecule `Clc1ccc(NC2CCN(Cc3ccccc3)CC2)nn1` had a melting point of 208 to 209 °C.

In the case of `CC[C@H]1c2ccc(C#N)n2-c2cc(F)c(F)cc2N1S(=O)(=O)c1ccc(O)c(C)c1`, the melting point lay in the range of 201 to 203 °C.

As to `Cc1cccc(N=c2scc(-c3ccc(Cl)c(S(=O)(=O)N(C)C)c3)n2C)c1C`, the melting point is 226 °C.

For `Ic1cc(I)c(OCCC(c2ccccc2)c2ccccc2)c(I)c1`, the melting point lay in the range of 120 to 121 °C.

`C/C(=N/O)[C@@H]1C[C@H](C(=O)OC(C)(C)C)N(C(=O)CNC(=O)Nc2cccc(C)c2)[C@@H]1c1ccccc1` (racemic) displayed a melting point of 166 °C.

`CCCCNC(=O)CSc1nc(Cl)cc(Cl)n1` registered a melting point of 109 to 111 °C.

The molecule `CCCCCC(=O)NCCc1ccc(S(=O)(=O)NC(=O)c2ccc(C(=O)NCC(=O)O)nc2)cc1` returned a melting point of 115 to 116 °C.

For the molecule `CC(C)C(=O)CNC(=O)c1ccccc1`, the melting point lay in the range of 78 to 80 °C.

`COC(=O)c1sc2ccc(CCl)cc2c1C` yielded a melting point of 115 to 116 °C.

`CC(C)(C)C1=CC(=O)C2=C(CCCC2)C1=O` displayed a melting point of 50 to 52 °C.

As for `COc1ccccc1-c1c(=O)[nH]c2cc(Cl)c(Cl)cc2[n+]1[O-]`, the melting point is 239 to 241 °C.

As for `COc1cc(F)c(C(=O)Nc2c(Cl)cncc2Cl)cc1OC1CCCC1`, the melting point is 143 to 144 °C.

As to `COc1cc2cc(/C=N\O)sc2cc1OC`, the melting point lay within 211 to 215 °C.

`COc1cccc(/C(=C\C=C\C(=O)NCCCCc2cccnc2)c2ccccc2)c1` had a melting point of 89 to 91 °C.

Take `COc1c(C)c(C)c(OC)c(CCCCO)c1C`: the melting point lay within 85.1 to 87.1 °C.

`Cc1c(C(=O)OC(C)(C)C)oc2cccc(O)c12` registered a melting point of 158 to 159 °C.

The molecule `CC12CCC3(CC1CCC1C2CCC2(C)C1CC(O)C2N=[N+]=[N-])OCCO3` (centres undefined) returned a melting point of 112 to 116 °C.

In turn, `Clc1ccc2c(c1)N(CC1CN3CCC1CC3)c1ccccc1S2` (centres undefined) came in with a melting point of 122 °C.

Regarding `Cn1cc2c3c(c(F)cc2n1)CCC3=O`, the melting point fell in the range of 190 to 192 °C.

For `CON(c1ccc([N+](=O)[O-])cc1[N+](=O)[O-])S(=O)(=O)c1cccc(Cl)c1`, the melting point was in the range of 157 to 159 °C.

Take `COC(=O)c1nc(-c2csc3ccc(C)cc23)nc(N)c1Cl`: the melting point fell in the range of 164 to 165 °C.

In the case of `OC1(CNCc2ccccc2)CCN(CCc2c[nH]c3ccc(-n4cnnc4)cc23)C1` (centres undefined), the melting point is over 56 °C.

The molecule `COc1ccc2nc(CBr)ccc2c1` yielded a melting point of 103 °C.

Molecule `COc1cc(N2CCN(C)CC2)ccc1-c1nc2c(N[C@H]3[C@@H](C(N)=O)[C@@H]4C=C[C@H]3C4)c(Br)cnc2[nH]1` had a melting point of 185 to 195 °C.

`Clc1ccc(C(=NN=Cc2cccnc2)SSC(=NN=Cc2cccnc2)c2ccc(Cl)cc2)cc1` had a melting point of 143 to 145 °C.

As to `O=C(C=Cc1ccncc1)c1ccc([N+](=O)[O-])cc1`, the melting point was 218 to 221 °C.

`CN(C)C1(c2ccccc2)CCC(=CC(=O)N2CCC(c3c[nH]c4ccccc34)C2)CC1` (centres undefined) registered a melting point of 94 to 97 °C.

`C=C(C)C(=O)Oc1ccc(/C=C/C(=O)OC)cc1`: the melting point lay within 76 to 80 °C.
